Source: PubChem BioAssay (NCI)
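Results reflect a 48-hour exposure of cells in 96-well plates to compound at five concentrations. The concentration for 50% growth inhibition is given as GI50. TGI: total growth inhibition.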

Columns and labels:
Test in all cases: NCI tumour cell line growth inhibition, 48 h
NCI-H460 lung = system: NCI-H460 lung
HS 578T breast = system: HS 578T breast
MDA-MB-231 breast = system: MDA-MB-231 breast
SF-539 CNS = system: SF-539 CNS
UO-31 renal = system: UO-31 renal
SF-268 CNS = system: SF-268 CNS
SNB-75 CNS = system: SNB-75 CNS
MALME-3M melanoma = system: MALME-3M melanoma
T-47D breast = system: T-47D breast
CCRF-CEM leukemia = system: CCRF-CEM leukemia
MDA-MB-435 = system: MDA-MB-435
HCC-2998 colon = system: HCC-2998 colon
UACC-62 melanoma = system: UACC-62 melanoma
NCI-H522 lung = system: NCI-H522 lung
A498 renal = system: A498 renal
MDA-MB-468 breast = system: MDA-MB-468 breast
NCI/ADR-RES ovarian = system: NCI/ADR-RES ovarian
HT29 colon = system: HT29 colon
IGROV1 ovarian = system: IGROV1 ovarian
786-0 renal = system: 786-0 renal
SNB-19 CNS = system: SNB-19 CNS
MOLT-4 leukemia = system: MOLT-4 leukemia
U251 CNS = system: U251 CNS
HOP-92 NSCLC = system: HOP-92 NSCLC
BT-549 breast = system: BT-549 breast
KM12 colon = system: KM12 colon
EKVX NSCLC = system: EKVX NSCLC
A549 NSCLC = system: A549 NSCLC
CAKI-1 renal = system: CAKI-1 renal
SF-295 CNS = system: SF-295 CNS
PC-3 prostate = system: PC-3 prostate
DU-145 prostate = system: DU-145 prostate
HCT-116 colon = system: HCT-116 colon
SK-MEL-5 melanoma = system: SK-MEL-5 melanoma
OVCAR-4 ovarian = system: OVCAR-4 ovarian
SK-MEL-28 melanoma = system: SK-MEL-28 melanoma
SK-OV-3 ovarian = system: SK-OV-3 ovarian
K-562 leukemia = system: K-562 leukemia
HCT-15 colon = system: HCT-15 colon
SR leukemia = system: SR leukemia
ACHN renal = system: ACHN renal
LOX IMVI melanoma = system: LOX IMVI melanoma
COLO 205 colon = system: COLO 205 colon
SN12C renal = system: SN12C renal
NCI-H226 lung = system: NCI-H226 lung
HL-60(TB) leukemia = system: HL-60(TB) leukemia
HOP-62 NSCLC = system: HOP-62 NSCLC
RXF 393 renal = system: RXF 393 renal
RPMI-8226 leukemia = system: RPMI-8226 leukemia
SK-MEL-2 melanoma = system: SK-MEL-2 melanoma
SW-620 colon = system: SW-620 colon
OVCAR-5 ovarian = system: OVCAR-5 ovarian
TK-10 renal = system: TK-10 renal
NCI-H23 lung = system: NCI-H23 lung
OVCAR-8 ovarian = system: OVCAR-8 ovarian
UACC-257 melanoma = system: UACC-257 melanoma
M14 melanoma = system: M14 melanoma
MCF7 breast = system: MCF7 breast
OVCAR-3 ovarian = system: OVCAR-3 ovarian

COc1cc(Cn2c(C(F)(F)F)cc3c(Cl)ncnc32)ccn1
GI50 (NCI-H460 lung): 2.69 µM | TGI (NCI-H460 lung): 8.19 µM | GI50 (HS 578T breast): 3.13 µM | TGI (HS 578T breast): 16.6 µM | GI50 (MDA-MB-231 breast): 3.33 µM | TGI (MDA-MB-231 breast): 12.6 µM | GI50 (SF-539 CNS): 13.8 µM | TGI (SF-539 CNS): 26.7 µM | GI50 (UO-31 renal): 8.66 µM | TGI (UO-31 renal): 24.1 µM | GI50 (SF-268 CNS): 2.47 µM | TGI (SF-268 CNS): 9.37 µM | GI50 (SNB-75 CNS): 1.78 µM | TGI (SNB-75 CNS): 7.27 µM | GI50 (MALME-3M melanoma): 12.6 µM | TGI (MALME-3M melanoma): 25.5 µM | GI50 (T-47D breast): 13.4 µM | TGI (T-47D breast): 61.6 µM | GI50 (CCRF-CEM leukemia): 3.14 µM | TGI (CCRF-CEM leukemia): 18.6 µM | GI50 (MDA-MB-435): 3.26 µM | TGI (MDA-MB-435): 14.6 µM | GI50 (HCC-2998 colon): 1.78 µM | TGI (HCC-2998 colon): 3.27 µM | GI50 (UACC-62 melanoma): 8.1 µM | TGI (UACC-62 melanoma): 20.6 µM | GI50 (NCI-H522 lung): 3.28 µM | TGI (NCI-H522 lung): 15.3 µM | GI50 (A498 renal): 16 µM | TGI (A498 renal): 30.8 µM | GI50 (MDA-MB-468 breast): 1.78 µM | TGI (MDA-MB-468 breast): 3.77 µM | GI50 (NCI/ADR-RES ovarian): 15.3 µM | TGI (NCI/ADR-RES ovarian): 33.7 µM | GI50 (HT29 colon): 14.1 µM | TGI (HT29 colon): 41.3 µM | GI50 (IGROV1 ovarian): 1.78 µM | TGI (IGROV1 ovarian): 3.62 µM | GI50 (786-0 renal): 10.6 µM | TGI (786-0 renal): 25.9 µM | GI50 (SNB-19 CNS): 11.8 µM | TGI (SNB-19 CNS): 24.1 µM | GI50 (MOLT-4 leukemia): 3.3 µM | TGI (MOLT-4 leukemia): > 100 µM | GI50 (U251 CNS): 15 µM | TGI (U251 CNS): 28.9 µM | GI50 (HOP-92 NSCLC): 10.7 µM | TGI (HOP-92 NSCLC): 30.3 µM | GI50 (BT-549 breast): 1.63 µM | TGI (BT-549 breast): 3.16 µM | GI50 (KM12 colon): 13.5 µM | TGI (KM12 colon): 30.5 µM | GI50 (EKVX NSCLC): 7.95 µM | TGI (EKVX NSCLC): 23.9 µM | GI50 (A549 NSCLC): 16.4 µM | TGI (A549 NSCLC): 38.4 µM | GI50 (CAKI-1 renal): 7.32 µM | TGI (CAKI-1 renal): 20.6 µM | GI50 (SF-295 CNS): 16.8 µM | TGI (SF-295 CNS): 32.5 µM | GI50 (PC-3 prostate): 5.56 µM | TGI (PC-3 prostate): 20.8 µM | GI50 (DU-145 prostate): 1.76 µM | TGI (DU-145 prostate): 3.22 µM | GI50 (HCT-116 colon): 1.74 µM | TGI (HCT-116 colon): 4.3 µM | GI50 (SK-MEL-5 melanoma): 3.9 µM | TGI (SK-MEL-5 melanoma): 14.1 µM | GI50 (OVCAR-4 ovarian): 12 µM | TGI (OVCAR-4 ovarian): 26.7 µM | GI50 (SK-MEL-28 melanoma): 4.6 µM | TGI (SK-MEL-28 melanoma): 16.1 µM | GI50 (SK-OV-3 ovarian): 17.1 µM | TGI (SK-OV-3 ovarian): 32.3 µM | GI50 (K-562 leukemia): 2.36 µM | TGI (K-562 leukemia): > 100 µM | GI50 (HCT-15 colon): 3.09 µM | GI50 (SR leukemia): 3.61 µM | TGI (SR leukemia): > 100 µM | GI50 (ACHN renal): 14.4 µM | TGI (ACHN renal): 28.8 µM | GI50 (LOX IMVI melanoma): 1.67 µM | TGI (LOX IMVI melanoma): 3.17 µM | GI50 (COLO 205 colon): 15.3 µM | TGI (COLO 205 colon): 46.3 µM | GI50 (SN12C renal): 9.21 µM | TGI (SN12C renal): 21.5 µM | GI50 (NCI-H226 lung): 15.5 µM | TGI (NCI-H226 lung): 32.3 µM | GI50 (HL-60(TB) leukemia): 2.14 µM | TGI (HL-60(TB) leukemia): 7.28 µM | GI50 (HOP-62 NSCLC): 14.3 µM | TGI (HOP-62 NSCLC): 29.7 µM | GI50 (RXF 393 renal): 7.9 µM | TGI (RXF 393 renal): 22.4 µM | GI50 (RPMI-8226 leukemia): 15.4 µM | TGI (RPMI-8226 leukemia): 78.6 µM | GI50 (SK-MEL-2 melanoma): 9.95 µM | TGI (SK-MEL-2 melanoma): 22.5 µM | GI50 (SW-620 colon): 3.86 µM | TGI (SW-620 colon): 16.7 µM | GI50 (OVCAR-5 ovarian): 16 µM | TGI (OVCAR-5 ovarian): 32.4 µM | GI50 (TK-10 renal): 18.9 µM | TGI (TK-10 renal): 46.9 µM | GI50 (NCI-H23 lung): 2.19 µM | TGI (NCI-H23 lung): 4.91 µM | GI50 (OVCAR-8 ovarian): 11.4 µM | TGI (OVCAR-8 ovarian): 26.6 µM | GI50 (UACC-257 melanoma): 8.49 µM | TGI (UACC-257 melanoma): 21.7 µM | GI50 (M14 melanoma): 1.52 µM | TGI (M14 melanoma): 4.16 µM | GI50 (MCF7 breast): 5.12 µM | TGI (MCF7 breast): 19.8 µM | GI50 (OVCAR-3 ovarian): 2.32 µM | TGI (OVCAR-3 ovarian): 7.05 µM
